B1: Bv-mPPase (Bacteroides vulgatus Na+,H+-translocating mPPase) (Phocaeicola vulgatus ATCC 8482) (protein)
chain: METYLFWIVPIASLLALVLAWYFYKQMMLESEGTPTMEKIASYVRQGAMSYLKQQYKVVGLVFLGLVILFSIMAYGFNLQNPWVPIAFLTGGFFSGLSGFLGMKTATYASARTANAAQHSLNKGLRVAFRSGAVMGLVVVGLGLLDISFWYILLDYCIPTDALNPSAKLCVITTTMLTFGMGASTQALFARVGGGIYTKAADVGADLVGKVEAGIPEDDPRNPATIADNVGDNVGDVAGMGADLYESYCGSILATAALGAAAFIGSDDTVMQFKAVIAPMLIAAVGIVLSIIGIFAVRTKENAGMKELLGSLATGTNLSSVLIVVATFLILWALGLENWVNISFAVVVGLIVGIVIGRSTEYYTSQSYKPTQRLAESGKTGPATVIISGIGLGMVSTTIPVLAVVTGIILSYWLASGFDFANISMGLYGIGIAAVGMLSTLGITLATDAYGPIADNAGGNAEMSGLGKEVRKRTDALDSLGNTTAATGKGFAIGSAALTGLALLASYVEEIRIGLTRLGQTILELPNGITVDVHNASFTDYMLYYDVTLMNPKVLSGMFLGSMMAFLFCGLTMNAVGRAAAHMVEEVRRQFREIKGILTGEAEPDYARCVQISTKGAQREMVFPSLLAIIAPIATGLIFGVPGVIGLLIGGLSSGFVLAIFMANAGGAWDNAKKFIEEGNFGGKGSEVHKATVTGDTVGDPFKDTSGPSLNILIKLMSMVAIVMAGLTVAWSLF
notes: recombinant, expressed in E. coli C41(DE3), in inverted membrane vesicles; homodimer of approx. 70-kDa subunits; EC 7.1.3.1

Tests used:
[1] = target: T1, Da-mPPase (Na+-translocating mPPase of Desulfuromonas acetoxidans) (Desulfuromonas acetoxidans, UniProt Q1JY39); assay: PPi hydrolysis (continuous Pi assay) and pyranine Na+ transport assay, membrane vesicles; format: biochemical; settings: 150 µM PPi, 5 mM MgSO4, 5 mM Na2SO4, 25 mM K2SO4, 100 mM Mops-KOH pH 7.2
T1 construct: gene hppA; recombinant, expressed in E. coli C41(DE3), in inverted membrane vesicles; homodimer of approx. 70-kDa subunits
T1 sequence (Q1JY39 1-668): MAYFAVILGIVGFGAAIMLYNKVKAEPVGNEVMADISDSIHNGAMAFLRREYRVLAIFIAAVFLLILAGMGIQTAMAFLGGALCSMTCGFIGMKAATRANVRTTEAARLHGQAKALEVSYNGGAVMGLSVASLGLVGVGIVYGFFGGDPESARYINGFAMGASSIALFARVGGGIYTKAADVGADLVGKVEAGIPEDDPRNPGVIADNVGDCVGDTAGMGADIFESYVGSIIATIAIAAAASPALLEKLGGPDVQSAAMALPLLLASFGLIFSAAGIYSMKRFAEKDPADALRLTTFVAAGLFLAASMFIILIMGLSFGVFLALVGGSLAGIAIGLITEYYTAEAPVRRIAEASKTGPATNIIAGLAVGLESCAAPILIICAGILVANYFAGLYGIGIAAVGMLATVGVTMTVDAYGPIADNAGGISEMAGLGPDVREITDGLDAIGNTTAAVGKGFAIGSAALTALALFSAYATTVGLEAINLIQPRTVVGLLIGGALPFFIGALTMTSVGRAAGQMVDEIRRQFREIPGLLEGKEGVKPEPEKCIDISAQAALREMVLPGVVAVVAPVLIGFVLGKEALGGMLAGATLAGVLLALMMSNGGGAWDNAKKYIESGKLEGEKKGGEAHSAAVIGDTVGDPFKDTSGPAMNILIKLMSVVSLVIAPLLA

[2] = target: T2, Dh-mPPase (H+-translocating mPPase of Desulfitobacterium hafniense) (Desulfitobacterium hafniense, UniProt B8FXV7); assay: PPi hydrolysis (continuous Pi assay) and pyranine H+ transport assay, membrane vesicles; format: biochemical; settings: 150 µM PPi, 5 mM MgSO4, 5 mM Na2SO4, 25 mM K2SO4, 100 mM Mops-KOH pH 7.2
T2 construct: gene hppA; recombinant, expressed in E. coli C41(DE3), in inverted membrane vesicles; homodimer of approx. 70-kDa subunits
T2 sequence (B8FXV7 1-671): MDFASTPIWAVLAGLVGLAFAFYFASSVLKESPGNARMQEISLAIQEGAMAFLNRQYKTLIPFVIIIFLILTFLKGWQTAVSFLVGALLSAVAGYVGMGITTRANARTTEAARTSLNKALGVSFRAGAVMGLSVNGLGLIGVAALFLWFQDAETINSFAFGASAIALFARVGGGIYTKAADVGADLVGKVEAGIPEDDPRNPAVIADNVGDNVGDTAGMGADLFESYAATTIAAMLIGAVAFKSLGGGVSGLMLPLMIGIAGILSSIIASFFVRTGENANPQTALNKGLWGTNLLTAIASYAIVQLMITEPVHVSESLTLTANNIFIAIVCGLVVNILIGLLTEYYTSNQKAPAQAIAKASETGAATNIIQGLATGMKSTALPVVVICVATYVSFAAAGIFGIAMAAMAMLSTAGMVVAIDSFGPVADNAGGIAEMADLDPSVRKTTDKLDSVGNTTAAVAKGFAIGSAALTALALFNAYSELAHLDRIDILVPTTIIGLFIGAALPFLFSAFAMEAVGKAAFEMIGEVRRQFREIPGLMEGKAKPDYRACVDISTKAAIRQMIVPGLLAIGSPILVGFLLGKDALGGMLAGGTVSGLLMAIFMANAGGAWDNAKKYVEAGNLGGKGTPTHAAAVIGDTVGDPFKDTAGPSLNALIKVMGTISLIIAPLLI

[3] = substrate: O=P(O)(O)OP(=O)(O)O; assay: cells, lysate or membranes; format: biochemical, Phocaeicola vulgatus; settings: total PPi, first (stronger) of two sites in the dimer, macroscopic constant, 4.8 mM free Mg2+, 10 mM Na+ (5 mM Na2SO4), 25 mM K2SO4, 100 mM Mops-KOH pH 7.2, 25 °C

Molecule | PPi hydrolysis (continuous Pi assay) and pyranine Na+ transport assay, membrane [1] | PPi hydrolysis (continuous Pi assay) and pyranine H+ transport assay, membrane v [2] | Km [3]
O=P(O)(O)OP(=O)(O)O [PPi] | Na^+-translocating Da-mPPase caused monensin-sensitive alkalinization of the vesicle lumen in response to PPi addition | the PPi addition to Dh-mPPase-containing vesicles progressively decreased pyranine fluorescence | 
B1 |  |  | 15 ± 1 µM

From article PMC11593465, “Na^+ Translocation Dominates over H^+-Translocation in the Membrane Pyrophosphatase with Dual Transport Specificity” (International Journal of Molecular Sciences, 2024)
